Measurements published in ChEMBL document CHEMBL3785092, “Synthesis and biological evaluation of novel tetrahydroisoquinoline-C-aryl glucosides as SGLT2 inhibitors for the treatment of type 2 diabetes” (Eur J Med Chem, 2016).

target: T1, Sodium/glucose cotransporter 2 (Homo sapiens) (UniProt P31639); assay: Inhibition of human SGLT2 expressed in CHO cells assessed as reduction in [14C]AMG uptake at 10 uM after 1 hr by liquid scintillation counting method relative to control; assay type: cell-based
T1 sequence (whole entry): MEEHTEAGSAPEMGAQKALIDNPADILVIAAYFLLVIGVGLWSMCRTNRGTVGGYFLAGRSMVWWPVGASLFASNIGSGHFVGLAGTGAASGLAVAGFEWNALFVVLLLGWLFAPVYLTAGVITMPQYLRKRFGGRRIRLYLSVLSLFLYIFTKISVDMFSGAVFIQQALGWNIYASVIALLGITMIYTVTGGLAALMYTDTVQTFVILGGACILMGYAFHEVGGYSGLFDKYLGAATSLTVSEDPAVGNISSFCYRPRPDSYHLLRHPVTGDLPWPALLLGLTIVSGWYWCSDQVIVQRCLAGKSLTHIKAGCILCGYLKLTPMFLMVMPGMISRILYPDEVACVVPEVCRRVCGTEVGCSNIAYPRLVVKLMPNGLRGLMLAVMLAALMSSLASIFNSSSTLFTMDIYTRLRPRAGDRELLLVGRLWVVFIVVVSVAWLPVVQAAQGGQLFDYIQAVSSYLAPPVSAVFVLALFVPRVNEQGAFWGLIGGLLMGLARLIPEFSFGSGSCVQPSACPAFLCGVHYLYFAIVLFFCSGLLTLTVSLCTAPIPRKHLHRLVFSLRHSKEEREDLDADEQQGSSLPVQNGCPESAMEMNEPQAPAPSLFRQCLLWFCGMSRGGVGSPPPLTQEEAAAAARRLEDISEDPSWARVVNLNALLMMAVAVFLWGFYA

In order of rising inhibition:
1. COc1ccc(C[C@@H]2NCCc3ccc([C@@H]4O[C@H](CO)[C@@H](O)[C@H](O)[C@H]4O)cc32)cc1  32.1%
2. OC[C@H]1O[C@@H](c2ccc3c(c2)[C@H](c2ccc4c(c2)OCO4)NCC3)[C@H](O)[C@@H](O)[C@@H]1O  49.7%
3. CCOc1ccc(Cc2cc([C@@H]3O[C@H](CO)[C@@H](O)[C@H](O)[C@H]3O)ccc2Cl)cc1  85.4%
